Bounds are passed on as bounds.

What all share (format): in vivo
The subject of one assay is Myzus persicae. Description: B.2 Green peach aphid, systemic test on artificial diet in microtiter plates. The note with it: for mortality at 2500 ppm: Myzus persicae, 72 h, adult aphids, 3 days, read-out: mortality in comparison with untreated controls; for B.2, 10 ppm / B.2, 25 ppm: comparative experiment, aphid mortality, unit not given. From the text: B.2 Green Peach Aphid (Myzus persicae)
For evaluating control of green peach aphid (Myzus persicae) through systemic means the test unit consisted of 96-well-microtiter plates containing liquid artificial diet under an artificial mem brane.
The compounds were formulated using a solution containing 75% v/v water and 25% v/v DMSO. Different concentrations of formulated compounds were pipetted into the aphid diet, using a custom built pipetter, at two replications.
After application, 5-8 adult aphids were placed on the artificial membrane inside the microtiter plate wells. The aphids were then allowed to suck on the treated aphid diet and incubated at about 23±1° C. and about 50±5% relative humidity for 3 days. Aphid mortality and fecundity was then visually assessed.

A further assay concerns Heliothis virescens. The assay is described as follows: B.3 Tobacco budworm, insect diet and eggs in microtiter plates. The note with it: 120 h, egg and larval mortality, 5 days, read-out: mortality in comparison with untreated controls. On the procedure:
B.3 Tobacco Budworm (Heliothis virescens)
For evaluating control of tobacco budworm (Heliothis virescens) the test unit consisted of 96-well-microtiter plates containing an insect diet and 15-25 H. virescens eggs.
The compounds were formulated using a solution containing 75% v/v water and 25% v/v DMSO. Different concentrations of formulated compounds were sprayed onto the insect diet at 10 μl, using a custom-built micro atomizer, at two replications.
After application, microtiter plates were incubated at about 28±1° C. and about 80±5% relative humidity for 5 days. Egg and larval mortality was then visually assessed.

The next assay relates to Anthonomus grandis. Description: B.4 Boll weevil, insect diet and eggs in microtiter plates. The note with it: 120 h, egg and larval mortality, 5 days, read-out: mortality in comparison with untreated controls. The method, then: B.4 Boll Weevil (Anthonomus grandis)
For evaluating control of boll weevil (Anthonomus grandis) the test unit consisted of 96-well-microtiter plates containing an insect diet and 5-10 A. grandis eggs.
The compounds were formulated using a solution containing 75% v/v water and 25% v/v DMSO. Different concentrations of formulated compounds were sprayed onto the insect diet at 5 μl, using a custom-built micro atomizer, at two replications.
After application, microtiter plates were incubated at about 25±1° C. and about 75±5% relative humidity for 5 days. Egg and larval mortality was then visually assessed.

In a further assay the test system is Dichromothrips corbetti. Description: B.6 Orchid thrips, floral-immersion technique. The note with it: for mortality at 300 ppm: Dichromothrips corbetti, adult thrips, 72 hours after treatment, read-out: mortality in comparison with untreated controls; for B.6, 100 ppm: comparative experiment, thrips mortality, unit not given. The method, then: B.6 Orchid Thrips (Dichromothrips corbetti)
Dichromothrips corbetti adults used for bioassay were obtained from a colony maintained continuously under laboratory conditions. For testing purposes, the test compound is diluted in a 1:1 mixture of acetone:water (vol:vol), plus Kinetic HV at a rate of 0.01% v/v.
Thrips potency of each compound was evaluated by using a floral-immersion technique. All petals of individual, intact orchid flowers were dipped into treatment solution and allowed to dry in Petri dishes. Treated petals were placed into individual re-sealable plastic along with about 20 adult thrips. All test arenas were held under continuous light and a temperature of about 28° C. for duration of the assay. After 3 days, the numbers of live thrips were counted on each petal. The percent mortality was recorded 72 hours after treatment.

For the next assay, the system named is Plutella xylostella. The assay is described as follows: B.1 Diamond back moth, cabbage leaf dip test. The note with it: foliar, 3rd instar larvae, 72 hours after treatment, read-out: mortality in comparison with untreated controls. The method, then:
B.1 Diamond Back Moth (Plutella xylostella)
The active compound was dissolved at the desired concentration in a mixture of 1:1 (vol:vol) distilled water:acetone. Surfactant (Kinetic HV) was added at a rate of 0.01% (vol/vol). The test solution was prepared on the day of use.
Leaves of cabbage were dipped in test solution and air-dried. Treated leaves were placed in petri dishes lined with moist filter paper and inoculated with ten 3rd instar larvae. Mortality was recorded 72 hours after treatment. Feeding damages were also recorded using a scale of 0-100%.

Another assay concerns Spodoptera eridania. Description: B.5 Southern armyworm, 2nd instar larvae, sprayed lima bean plants. The note with it: 96 h, 4 days after treatment, read-out: mortality in comparison with untreated controls. The method, then: B.5. Southern Armyworm (Spodoptera eridania), 2nd Instar Larvae
The active compounds were formulated by a Tecan liquid handler in 100% cyclohexanone as a 10,000 ppm solution supplied in tubes. The 10,000 ppm solution was serially diluted in 100% cyclohexanone to make interim solutions. These served as stock solutions for which final dilutions were made by the Tecan in 50% acetone:50% water (v/v) into 10 or 20 ml glass vials. A nonionic surfactant (Kinetic®) was included in the solution at a volume of 0.01% (v/v). The vials were then inserted into an automated electrostatic sprayer equipped with an atomizing nozzle for application to plants/insects. Lima bean plants (variety Sieva) were grown 2 plants to a pot and selected for treatment at the 1st true leaf stage. Test solutions were sprayed onto the foliage by an automated electrostatic plant sprayer equipped with an atomizing spray nozzle. The plants were dried in the sprayer fume hood and then removed from the sprayer. Each pot was placed into perforated plastic bags with a zip closure. Ten to 11 armyworm larvae were placed into the bag and the bags zipped closed. Test plants were maintained in a growth room at about 25° C. and about 20-40% relative humidity for 4 days, avoiding direct exposure to fluorescent light (14:10 light:dark photoperiod) to prevent trapping of heat inside the bags. Mortality and reduced feeding were assessed 4 days after treatment, compared to untreated control plants.

In another assay the test system is Aedes aegypti. Description: B.7 Yellow fever mosquito, larvae in microtiter plates. The note with it: comparative experiment, larval mortality after 2 days, unit not given. The method, then: B.7 Yellow Fever Mosquito (Aedes aegypti)
For evaluating control of yellow fever mosquito (Aedes aegypti) the test unit consisted of 96-well-microtiter plates containing 200 μl of tap water per well and 5-15 freshly hatched A. aegypti larvae.
The active compounds were formulated using a solution containing 75% (v/v) water and 25% (v/v) DMSO. Different concentrations of formulated compounds or mixtures were sprayed onto the insect diet at 2.5 μl, using a custom-built micro atomizer, at two replications.
After application, microtiter plates were incubated at 28±1° C., 80±5% RH for 2 days. Larval mortality was then visually assessed.

For orientation: mortality means the share of the test organisms that died. Consider `CC(NC(=O)c1cc(Br)cc(C(F)(F)F)c1)c1nccnc1-n1ncn(C)c1=O` (stereo not shown) [I-1, 3-bromo-N-[1-[3-(4-methyl-5-oxo-1,2,4-triazol-1-yl)pyrazin-2-yl]ethyl]-5-(trifluoromethyl)benzamide], for which the mortality at 2500 ppm in the assay on Myzus persicae, with Heliothis virescens and in the assay with Anthonomus grandis was not below 75% throughout. In the assay on Dichromothrips corbetti, the mortality at 300 ppm was not below 75%.
`CC(NC(=O)c1cc(Br)cc(C(F)(F)F)c1)c1nccnc1-n1ncn(CC(F)(F)F)c1=O` (stereo not shown) [I-2, 3-bromo-N-[1-[3-[5-oxo-4-(2,2,2-trifluoroethyl)-1,2,4-triazol-1-yl]pyrazin-2-yl]ethyl]-5-(trifluoromethyl)benzamide]: the mortality at 2500 ppm in the assay with Myzus persicae, in the assay with Heliothis virescens and in the assay with Anthonomus grandis was not below 75% in each case. Also, the mortality at 300 ppm in the assay with Dichromothrips corbetti is not below 75%.
Turning to `COc1ccc(Cn2cnn(-c3nccnc3C(C)NC(=O)c3cc(Br)cc(S(C)(=O)=O)c3)c2=O)cc1` (stereo not shown) [I-3, 3-bromo-N-[1-[3-[4-[(4-methoxyphenyl)methyl]-5-oxo-1,2,4-triazol-1-yl]pyrazin-2-yl]ethyl]-5-methylsulfonyl-benzamide], in the assay on Myzus persicae, the mortality at 2500 ppm was not below 75%.
As to `CC(NC(=O)c1cc(Br)cc(S(C)(=O)=O)c1)c1nccnc1-n1ncn(CC2CC2)c1=O` (stereo not shown) [I-5, 3-bromo-N-[1-[3-[4-(cyclopropylmethyl)-5-oxo-1,2,4-triazol-1-yl]pyrazin-2-yl]ethyl]-5-methylsulfonyl-benzamide], the mortality at 300 ppm in the assay with Plutella xylostella and with Spodoptera eridania was not below 75% in each case. Besides, the mortality at 2500 ppm in the assay on Myzus persicae and in the assay with Anthonomus grandis was not below 75% in each case.
`CC(c1nccnc1-n1ncn(C)c1=O)N(C)C(=O)c1cc(Br)cc(S(C)(=O)=O)c1` (stereo not shown) [I-8, 3-bromo-N-methyl-N-[1-[3-(4-methyl-5-oxo-1,2,4-triazol-1-yl)pyrazin-2-yl]ethyl]-5-methylsulfonyl-benzamide]: in the assay on Myzus persicae, the mortality at 2500 ppm is not below 75%.
Regarding `CC(NC(=O)c1cc(C(F)(F)F)cc(C(F)(F)F)c1)c1nccnc1-n1ncn(C)c1=O` (stereo not shown) [I-10], the mortality at 300 ppm in the assay on Plutella xylostella, in the assay on Spodoptera eridania and in the assay with Dichromothrips corbetti was not below 75% in each case. Further, in the assay with Myzus persicae, the “B.2, 10 ppm” value turned out to be 100. For the same compound, the mortality at 2500 ppm in the assay with Myzus persicae, with Heliothis virescens and with Anthonomus grandis was not below 75% throughout. In the assay with Dichromothrips corbetti, the “B.6, 100 ppm” value is reported as 100.
Turning to `CC(c1nccnc1-n1ncn(CC(F)(F)F)c1=O)N(CC1CC1)C(=O)c1cc(C(F)(F)F)cc(C(F)(F)F)c1` (stereo not shown) [I-15], the mortality at 300 ppm in the assay on Plutella xylostella, in the assay on Spodoptera eridania and with Dichromothrips corbetti was not below 75% throughout. Moreover, the “B.2, 25 ppm” value with Myzus persicae came out at 100. The mortality at 2500 ppm with Myzus persicae, with Heliothis virescens and in the assay with Anthonomus grandis was not below 75% throughout. In addition, the “B.7, 10 ppm” value with Aedes aegypti came out at 100.
Regarding `CC(NC(=O)c1cc(C(F)(F)F)cc(C(F)(F)F)c1)c1nccnc1-n1cncn1` (stereo not shown) [WO2021/037614 P46, reference compound], in the assay on Myzus persicae, the “B.2, 10 ppm” value came to 25. In addition, the “B.6, 100 ppm” value in the assay on Dichromothrips corbetti was 0.
`CC(c1nccnc1-n1cncn1)N(CC1CC1)C(=O)c1cc(C(F)(F)F)cc(C(F)(F)F)c1` (stereo not shown) [WO2021/037614 P48, reference compound]: in the assay on Myzus persicae, the “B.2, 25 ppm” value was 50. Moreover, the “B.7, 10 ppm” value with Aedes aegypti was 0.

The values above are taken from patent publication US20250000093A1, “HETEROCYCLIC COMPOUNDS FOR THE CONTROL OF INVERTEBRATE PESTS” (BASF SE, priority 2021, published 2025).
